Results: patent US5707615A, “Method of treating HIV infections with anti-viral formulations” (Merrell Pharmaceuticals Inc., priority 1997, dated 1998)
Where two headings read alike, the source gives them in different places.

Key:
MT4 cells = experiment: Toxicity to MT4 cells (TD50, Table IV, MTT); type: cell-based; conditions: MT4 cells, 7 days, MTT
Method: (§1) Various oligomers were dissolved in RPMI and were then assayed for anti-HIV activity by making doubling dilutions of the solutions across a 96 well microtitre plate. To each well were then added 5×10^4 cells and 100 TCID50 of virus and the plates incubated at 37° C. for 7 days. MTT was added to each well and the plates incubated for a further 2 hours. The blue formazan crystals were dissolved using acidic isopropanol, and the absorbance measured at 540 nm.

HIV strain RF = experiment: Ability to prevent virus-induced cell death using MT4 cells and strain RF (Example III); type: cell-based; conditions: MT4 cells, 7 days, MTT, 10080 min
Method: as §1

HIV (Strain GB8) = experiment: JM cells infected with HIV strain GB8: syncytia and p24 (Example VII); type: cell-based; conditions: for p24 3 days p.i.: supernatant screened at 1/100 dilution
Method: JM cells were infected with HIV (Strain GB8) to give approximately 200 syncytia/1×10^5 cells after 3 days; virus infection was for 1 hour at room temperature.

HIV (Strain RF) = experiment: Anti-HIV activity in C8166 cells infected with HIV strain RF: syncytia and p24 (Example VI); type: cell-based; conditions: for p24 % of VIRUS CONTROL: 2880 min
Method: Protocol: C8166 cells were infected with HIV (Strain RF) for 1 hour at room temperature to give a multiplicity of infection of approximately 0.01 infectious units per cell.

HIV-I (RF) = experiment: Effect of treating HIV-I (RF)-infected cells (C8166) 24 hours post-infection (Example V, Table VII); conditions: for P24 DAY 6 p.i. / SYNCYTIA/WELL DAY 2 / SYNCYTIA/WELL DAY 3: 10 μM; for activity at 10 µM: Human immunodeficiency virus 1, C8166, 144 h, read-out: P24 % CONTROL, 10 μM
Method: Cells were infected with strain RF or GB8 for 24 hours at 37° C. at a multiplicity of infection of 0.001. Cells were washed three times to remove residual virus and then replated into fresh growth medium. Cells were then treated for 24 and 48 hours post-infection (p.i.) with the indicated concentrations of test compounds. Syncytia and P24 antigen levels were determined on the indicated days p.i. by methods described before.

GB8 virus in JM cells = experiment: Virus infection of JM cells with GB8 in the presence of test compounds: syncytia and P24 (Example II); conditions: for SYNCYTIA % / P24 %: % of control; for SYNCYTIA %: 2880 min; for P24 %: 5760 min

Compound: poly[imino(3-sulfo-1,4-phenylene)-1,2-ethenediyl-(2-sulfo-1,4-phenylene)iminocarbonyl], alpha-{[(4-methylphenyl)aminocarbonyl}-omega-[(4-methylphenyl)amino- [Example 2B]
- TD50 (MT4 cells): > 100 µg/mL
- ED50 (HIV strain RF): 2.5 µg/mL

Compound: poly[oxy(2,5-disulfo-1,4-phenylene)oxycarbonyl-1,4-phenylenecarbonyl]- [Example 7]
- MEAN SYNCYTIA 3 days p.i. (HIV (Strain GB8); 25 μg/ml): 43
- p24 3 days p.i. (HIV (Strain GB8); 25 μg/ml): neg
- MEAN SYNCYTIA 3 days p.i. (HIV (Strain GB8); 50 μg/ml): 24
- p24 3 days p.i. (HIV (Strain GB8); 50 μg/ml): neg
- MEAN SYNCYTIA 3 days p.i. (HIV (Strain GB8); 100 μg/ml): 7
- p24 3 days p.i. (HIV (Strain GB8); 100 μg/ml): neg
- MEAN SYNCYTIA 3 days p.i. (HIV (Strain GB8); 200 μg/ml): 0
- p24 3 days p.i. (HIV (Strain GB8); 200 μg/ml): neg
- p24 Day 2 (HIV (Strain RF); 12 μg/ml): 3140 pg/mL
- p24 % of VIRUS CONTROL (HIV (Strain RF); 12 μg/ml): 98%
- p24 Day 2 (HIV (Strain RF); 25 μg/ml): 1450 pg/mL
- p24 % of VIRUS CONTROL (HIV (Strain RF); 25 μg/ml): 45%
- p24 Day 2 (HIV (Strain RF); 50 μg/ml): 870 pg/mL
- p24 % of VIRUS CONTROL (HIV (Strain RF); 50 μg/ml): 27%
- p24 Day 2 (HIV (Strain RF); 100 μg/ml): neg
- p24 % of VIRUS CONTROL (HIV (Strain RF); 100 μg/ml): 0%

Compound: Cc1cn([C@H]2C[C@H](N=[N+]=[N-])[C@@H](CO)O2)c(=O)[nH]c1=O [AZT, reference compound]
- P24 DAY 6 p.i. (HIV-I (RF); addition 0 hours p.i.): 10000 pg/mL
- SYNCYTIA/WELL DAY 2 (HIV-I (RF); addition 0 hours p.i.): 0
- SYNCYTIA/WELL DAY 3 (HIV-I (RF); addition 0 hours p.i.): 0
- P24 DAY 6 p.i. (HIV-I (RF); addition 24 hours p.i.): 44000 pg/mL
- activity at 10 µM (HIV-I (RF); addition 0 hours p.i.): 1.1%
- activity at 10 µM (HIV-I (RF); addition 24 hours p.i.): 4.6%
- p24 Day 2 (HIV (Strain RF); 0.1 μg/ml): neg
- SYNCYTIA Day 2 (HIV (Strain RF); 1 μg/ml): 0
- p24 Day 2 (HIV (Strain RF); 1 μg/ml): neg
- activity at 0.1 µg/mL (HIV (Strain RF); Human immunodeficiency virus 1, C8166, 48 h, 0.1 μg/ml, read-out: p24 % of VIRUS CONTROL): 0%
- activity at 1 µg/mL (HIV (Strain RF); Human immunodeficiency virus 1, C8166, 48 h, 1 μg/ml, read-out: p24 % of VIRUS CONTROL): 0%

Compound: Nc1ccn([C@H]2CC[C@@H](CO)O2)c(=O)n1 [ddC, reference compound]
- MEAN SYNCYTIA 3 days p.i. (HIV (Strain GB8); 0.01 μg/ml): 80
- p24 3 days p.i. (HIV (Strain GB8); 0.01 μg/ml): 5400 pg/mL
- MEAN SYNCYTIA 3 days p.i. (HIV (Strain GB8); 0.1 μg/ml): 2
- p24 3 days p.i. (HIV (Strain GB8); 0.1 μg/ml): neg
- MEAN SYNCYTIA 3 days p.i. (HIV (Strain GB8); 1 μg/ml): 0
- p24 3 days p.i. (HIV (Strain GB8); 1 μg/ml): neg
- MEAN SYNCYTIA 3 days p.i. (HIV (Strain GB8); 10 μg/ml): 0
- p24 3 days p.i. (HIV (Strain GB8); 10 μg/ml): neg
- P24 DAY 6 p.i. (HIV-I (RF); addition 0 hours p.i.): 13000 pg/mL
- SYNCYTIA/WELL DAY 2 (HIV-I (RF); addition 0 hours p.i.): 0
- SYNCYTIA/WELL DAY 3 (HIV-I (RF); addition 0 hours p.i.): 0
- P24 DAY 6 p.i. (HIV-I (RF); addition 24 hours p.i.): 420000 pg/mL
- activity at 10 µM (HIV-I (RF); addition 0 hours p.i.): 1.4%
- activity at 10 µM (HIV-I (RF); addition 24 hours p.i.): 44.2%

Compound: poly[imino(3-sulfo-1,4-phenylene)-1,2-ethenediyl-(2-sulfo-1,4-phenylene)iminocarbonyl], alpha-{[(4-methylphenyl)aminocarbonyl}-omega-[(4-methylphenyl)amino- [Example 2A]
- TD50 (MT4 cells): > 100 µg/mL
- ED50 (HIV strain RF): 1.9 µg/mL

Compound: poly{imino[2,2'-disulfo(1,1'-biphenyl)-4,4'-diyl]iminocarbonyl-1,4-phenylenecarbonyl}, alpha-{[(4-methylphenyl)amino]carbonyl}-omega-[(4-methylphenyl)amino]- [Example 8A]
- TD50 (MT4 cells): > 100 µg/mL
- ED50 (HIV strain RF): 1.5 µg/mL
- P24 (GB8 virus in JM cells; Table II, 1 μg/mL): 4.3 × 10^4 units/mL
- SYNCYTIA (2 DAYS) MEAN (GB8 virus in JM cells; Table II, 1 μg/mL): 3
- SYNCYTIA % (GB8 virus in JM cells; Table II, 1 μg/mL): 7%
- P24 % (GB8 virus in JM cells; Table II, 1 μg/mL): 12%
- P24 (GB8 virus in JM cells; Table II, 3 μg/mL): 4.4 × 10^4 units/mL
- SYNCYTIA (2 DAYS) MEAN (GB8 virus in JM cells; Table II, 3 μg/mL): 0
- SYNCYTIA % (GB8 virus in JM cells; Table II, 3 μg/mL): 0%
- P24 % (GB8 virus in JM cells; Table II, 3 μg/mL): 12%
- SYNCYTIA (2 DAYS) MEAN (GB8 virus in JM cells; Table II, 10 μg/mL): 0
- SYNCYTIA % (GB8 virus in JM cells; Table II, 10 μg/mL): 0%
- SYNCYTIA (2 DAYS) MEAN (GB8 virus in JM cells; Table II, 30 μg/mL): 0
- SYNCYTIA % (GB8 virus in JM cells; Table II, 30 μg/mL): 0%
- SYNCYTIA (2 DAYS) MEAN (GB8 virus in JM cells; Table II, 100 μg/mL): 0
- SYNCYTIA % (GB8 virus in JM cells; Table II, 100 μg/mL): 0%
- P24 (GB8 virus in JM cells; Table III, 5 μg/mL): 268599 pg/mL
- SYNCYTIA MEAN (GB8 virus in JM cells; Table III, 5 μg/mL): 35
- SYNCYTIA % (GB8 virus in JM cells; Table III, 5 μg/mL): 51%
- P24 % (GB8 virus in JM cells; Table III, 5 μg/mL): 81%
- P24 (GB8 virus in JM cells; Table III, 50 μg/mL): 11600 pg/mL
- SYNCYTIA MEAN (GB8 virus in JM cells; Table III, 50 μg/mL): 0
- P24 % (GB8 virus in JM cells; Table III, 50 μg/mL): 3.5%
- SYNCYTIA MEAN (GB8 virus in JM cells; Table III, 500 μg/mL): 0
